Key:
[1] = test system: DU145; assay: In vitro testing of compound 10, CellTiter-Glo viability, +/- β-glucuronidase, 72 hour assay; type: cell-based; settings: Homo sapiens, DU-145, 72 h
Description: DU145 (2000/well, 72 hour assay) and MDA-MB-361 (5000/well, 144 hour assay) cells were plated in culture medium to tissue culture-treated 96-well plates at a volume of 80 μL per well and allowed to adhere overnight. For warhead dilutions, first a 60× concentration of each dose to be tested was prepared by diluting the test articles in DMSO. The 60× dilutions of warhead were then further diluted to a 5× concentration in either cell culture medium alone or cell culture medium containing 5× β-glucuronidase enzyme (Sigma Cat # G0799-25KU). […] DMSO alone diluted to the culture medium was used as the controls. The treated cells were cultured at 37° C./5% CO2 for 72 to 144 hours (depending on established growth kinetics of each particular cell line). At the end of the assay, CellTiter-Glo® (CTG) Luminescent Viability Assay (Promega) was used to determine relative cytotoxicity. 100 μL of CTG reagent was added to each well, and plates were incubated for 10 minutes at room temperature with gentle shaking, absorbance of each sample was read at 560 nm using an EnVision luminometer (Perkin Elmer). The percent cell viability was calculated by the following formula: (average luminescence of treated samples/average luminescence of control samples)×100.
(§1) IC50 values were determined using logistic non-linear regression analysis with GraphPad Prism software.

[2] = test system: MDA-MB-361; assay: In vitro testing of compound 10, CellTiter-Glo viability, +/- β-glucuronidase, 144 hour assay; type: cell-based; settings: Homo sapiens, MDA-MB-361, 144 h
Description: DU145 (2000/well, 72 hour assay) and MDA-MB-361 (5000/well, 144 hour assay) cells were plated in culture medium to tissue culture-treated 96-well plates at a volume of 80 μL per well and allowed to adhere overnight. For warhead dilutions, first a 60× concentration of each dose to be tested was prepared by diluting the test articles in DMSO. The 60× dilutions of warhead were then further diluted to a 5× concentration in either cell culture medium alone or cell culture medium containing 5× β-glucuronidase enzyme (Sigma Cat # G0799-25KU). 20 μL of cell culture medium containing test article+/−enzyme was added to cells in triplicate wells, and the final dose curve ranged from 6.4 nM to 61 pM in a stepwise 1:4 serial dilution series. DMSO alone diluted to the culture medium was used as the controls. […] 100 μL of CTG reagent was added to each well, and plates were incubated for 10 minutes at room temperature with gentle shaking, absorbance of each sample was read at 560 nm using an EnVision luminometer (Perkin Elmer). The percent cell viability was calculated by the following formula: (average luminescence of treated samples/average luminescence of control samples)×100.
as §1

[3] = test system: human tumour cell lines; settings: cited from earlier work; for activity against a range of human tumour cell lines: quoted from REF 2014 impact study
[4] = test system: human tumour xenograft models; settings: quoted from REF 2014 impact study; cited from earlier work

C=C1C[C@H]2[C@H](O)N(C(=O)OCc3ccc(NC(=O)[C@H](C)NC(=O)[C@@H](NC(=O)CCOCCOCCOCCOCCOCCOCCOCCOCCNC(=O)CCN4C(=O)C=CC4=O)C(C)C)cc3)c3cc(OCCCOc4cc5c(cc4OC)C(=O)N4CC(=C)C[C@H]4[C@H](O)N5C(=O)OCc4ccc(O[C@@H]5O[C@H](C(=O)O)[C@@H](O)[C@H](O)[C@H]5O)c([N+](=O)[O-])c4)c(OC)cc3C(=O)N2C1 [Compound 10]
IC50 ([1]; No glucuronidase): 6840 nM | IC50 ([1]; With glucuronidase): 201 nM | IC50 ([2]; No glucuronidase): 778 nM | IC50 ([2]; With glucuronidase): 32 nM

C=C1C[C@H]2C=Nc3cc(OCCCOc4cc5c(cc4OC)C(=O)N4CC(=C)C[C@H]4C=N5)c(OC)cc3C(=O)N2C1 [SG2000]
times less cytotoxic than SG2057 ([3]; see Hartley et al 2012): at least 10 times

C=C1C[C@H]2C=Nc3cc(OCCCCCOc4cc5c(cc4OC)C(=O)N4CC(=C)C[C@H]4C=N5)c(OC)cc3C(=O)N2C1 [SG2057]
activity against a range of human tumour cell lines [3]: picomolar/sub-picomolar activity | activity in human tumour xenograft models [4]: curative activity

COc1ccc(C2=CN3C(=O)c4cc(OC)c(OCCCOc5cc6c(cc5OC)C(=O)N5C=C(c7ccc(OC)cc7)C[C@H]5C=N6)cc4N=C[C@@H]3C2)cc1 [SG2202]
activity against a range of human tumour cell lines [3]: picomolar/sub-picomolar activity | activity in human tumour xenograft models [4]: curative activity

— US10799595B2, “Pyrrolobenzodiazepine conjugates” (priority 2016, dated 2020)
